# Experimental data as given in US10017514B2, “6,7-dihydropyrazolo[1,5-α]pyrazin-4(5H)-one compounds and their use as negative allosteric modulators of mGluR2 receptors” (Janssen Pharmaceutica NV, priority 2014, dated 2018).
# Columns and labels:
# human mGlu2 receptor = target: T1, human mGlu2 receptor (Homo sapiens, UniProt Q14416); assay: [35S]GTPγS binding assay, mGluR2 negative allosteric modulation; type: biochemical; conditions: for Emax: maximal % inhibition relative to the control glutamate response (EC80 glutamate), read-out: GTPγS-hmGluR2 anGT Emax; for IC50: membranes from CHO cells transfected with human mGlu2 receptor, glutamate ~EC80 (60 μM), read-out: GTPγS-hmGluR2 anGT pIC50 (converted)
# T1 construct: expressed in transfected cells; host or cells: CHO cells (membrane preparation)
# Method: Total reaction volume was 200 μl. […] Membrane-bound radioactivity was counted in a Topcount.
# rats = assay: Reversal of the effect of the mGluR2 PAM JNJ-42153605-induced inhibition of scopolamine-induced hyperlocomotion; type: in vivo, rat; conditions: for ED50: Rattus norvegicus, rats, PO, 60 min pretreatment, JNJ-42153605 20 mg/kg i.v. + scopolamine 0.16 mg/kg i.v., criterion total distance >1500 cm in 30 min, read-out: SCOP JNJ-42153605 ED50
# Method: Motor activity was measured in microprocessor-based motor activity arenas (closed gray PVC cylinders with a height of 39 cm and a diameter of 31 cm). Each arena was placed on an infrared LED (8×8 LEDs) lit box (white PVC squared box; 40×40 cm^2; height 12.5 cm. An infrared-sensitive tube camera and a white light source were mounted to the ceiling above the observation chamber to track the animal. […] Noldus, Wageningen, The Netherlands). The intensity of the light within the activity cages (measured in the centre at the level of the floor) ranged between 4 and 8 LUX. The rats were pretreated with test compound or vehicle at 60 min before the start of the activity recordings and placed into individual cages. […] WO2010/130424; Cid et al. J. Med.
# [1] = historical series of solvent-pretreated control rats, first 30 min
# T1 sequence (Q14416 19-872): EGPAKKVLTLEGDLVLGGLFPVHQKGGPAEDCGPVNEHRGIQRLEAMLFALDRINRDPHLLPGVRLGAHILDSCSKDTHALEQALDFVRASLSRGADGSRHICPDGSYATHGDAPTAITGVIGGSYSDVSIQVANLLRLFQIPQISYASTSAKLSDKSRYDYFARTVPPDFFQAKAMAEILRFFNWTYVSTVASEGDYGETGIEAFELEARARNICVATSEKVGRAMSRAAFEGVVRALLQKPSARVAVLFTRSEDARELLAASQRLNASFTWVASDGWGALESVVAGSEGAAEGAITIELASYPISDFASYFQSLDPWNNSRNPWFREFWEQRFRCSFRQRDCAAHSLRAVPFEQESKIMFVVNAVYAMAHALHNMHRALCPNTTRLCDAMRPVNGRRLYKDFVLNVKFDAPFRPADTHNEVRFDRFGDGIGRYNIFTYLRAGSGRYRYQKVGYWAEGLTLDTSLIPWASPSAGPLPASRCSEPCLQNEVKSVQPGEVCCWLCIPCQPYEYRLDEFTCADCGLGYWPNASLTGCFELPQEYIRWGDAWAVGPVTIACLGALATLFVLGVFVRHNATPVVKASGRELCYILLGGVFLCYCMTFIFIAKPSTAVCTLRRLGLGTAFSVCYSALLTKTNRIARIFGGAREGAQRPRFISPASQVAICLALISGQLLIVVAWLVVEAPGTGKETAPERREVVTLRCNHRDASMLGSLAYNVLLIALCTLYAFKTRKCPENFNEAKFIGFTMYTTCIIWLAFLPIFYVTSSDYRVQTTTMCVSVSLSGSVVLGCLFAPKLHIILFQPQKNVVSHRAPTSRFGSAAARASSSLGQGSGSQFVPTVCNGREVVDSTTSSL
Structure (SMILES),Emax (human mGlu2 receptor) [%],IC50 (human mGlu2 receptor) [µM],melting point [°C],ED50 (rats) [mg/kg],Median total distance travelled (rats; [1]) [cm],rats travelling >1500 cm (rats; [1]) [%],rats travelling >4400 cm (rats; [1]) [%]
"Cc1cc(-c2cnn3c2C(=O)N(c2ccc(C(F)(F)F)cc2)C[C@@H]3C)no1 [Co. No. 1, (7S)-7-Methyl-3-(5-methylisoxazol-3-yl)-5-[4-(trifluoromethyl)phenyl]-6,7-dihydropyrazolo[1,5-a]pyrazin-4-one]",103,0.0692,165.04,–,–,–,–
"C[C@H]1CN(c2ccc(C(F)(F)F)cc2)C(=O)c2c(-c3cc(-c4ccc(N)nc4)on3)cnn21 [Co. No. 2, (7S)-3-[5-(6-Amino-3-pyridyl)isoxazol-3-yl]-7-methyl-5-[4-(trifluoromethyl)phenyl]-6,7-dihydropyrazolo[1,5-a]pyrazin-4-one]",103,0.00204,233.79,0.5,–,–,–
"C[C@H]1CN(c2ccc(C(F)(F)F)cc2)C(=O)c2c(-c3cc(-c4ccccc4)on3)cnn21 [Co. No. 3, (7S)-7-methyl-3-(5-phenylisoxazol-3-yl)-5-[4-(trifluoromethyl)phenyl]-6,7-dihydropyrazolo[1,5-a]pyrazin-4-one]",103,0.00912,194.25,–,–,–,–
"C[C@H]1CN(c2ccc(C(F)(F)F)cc2)C(=O)c2c(-c3cc(-c4ccccn4)on3)cnn21 [Co. No. 4, (7S)-7-methyl-3-[5-(2-pyridyl)isoxazol-3-yl]-5-[4-(trifluoromethyl)phenyl]-6,7-dihydropyrazolo[1,5-a]pyrazin-4-one]",106,0.0407,193.65,–,–,–,–
"C[C@H]1CN(c2ccc(C(F)(F)F)cc2)C(=O)c2c(-c3cc(-c4cccnc4)on3)cnn21 [Co. No. 5, (7S)-7-methyl-3-[5-(3-pyridyl)isoxazol-3-yl]-5-[4-(trifluoromethyl)phenyl]-6,7-dihydropyrazolo[1,5-a]pyrazin-4-one]",106,0.0112,215.1,0.51,–,–,–
"Cc1cc(-c2cc(-c3cnn4c3C(=O)N(c3ccc(C(F)(F)F)cc3)C[C@@H]4C)no2)ccn1 [Co. No. 6, (7S)-7-methyl-3-[5-(2-methyl-4-pyridyl)isoxazol-3-yl]-5-[4-(trifluoromethyl)phenyl]-6,7-dihydropyrazolo[1,5-a]pyrazin-4-one]",114,0.0407,118.52,–,–,–,–
"Cc1cncc(-c2cc(-c3cnn4c3C(=O)N(c3ccc(C(F)(F)F)cc3)C[C@@H]4C)no2)c1 [Co. No. 7, (7S)-7-methyl-3-[5-(5-methyl-3-pyridyl)isoxazol-3-yl]-5-[4-(trifluoromethyl)phenyl]-6,7-dihydropyrazolo[1,5-a]pyrazin-4-one]",106,0.0275,208.95,–,–,–,–
"Cc1cc(-c2cnn3c2C(=O)N(c2ccc(C(F)(F)F)c(Cl)c2)C[C@@H]3C)no1 [Co. No. 8, (7S)-5-[3-chloro-4-(trifluoromethyl)phenyl]-7-methyl-3-(5-methylisoxazol-3-yl)-6,7-dihydropyrazolo[1,5-a]pyrazin-4-one]",110,0.0162,–,–,–,–,–
"C[C@H]1CN(c2ccc(C(F)(F)F)c(Cl)c2)C(=O)c2c(-c3cc(-c4ccc(N)nc4)on3)cnn21 [Co. No. 9, (7S)-3-[5-(6-amino-3-pyridyl)isoxazol-3-yl]-5-[3-chloro-4-(trifluoromethyl)phenyl]-7-methyl-6,7-dihydropyrazolo[1,5-a]pyrazin-4-one]",113,0.00115,–,–,–,–,–
"C[C@H]1CN(c2ccc(C(F)(F)F)c(Cl)c2)C(=O)c2c(-c3cc(-c4ccccn4)on3)cnn21 [Co. No. 10, (7S)-5-[3-chloro-4-(trifluoromethyl)phenyl]-7-methyl-3-[5-(2-pyridyl)isoxazol-3-yl]-6,7-dihydropyrazolo[1,5-a]pyrazin-4-one]",106,0.00479,188.25,> 0.63,–,–,–
"C[C@H]1CN(c2ccc(C(F)(F)F)c(Cl)c2)C(=O)c2c(-c3cc(-c4cccnc4)on3)cnn21 [Co. No. 11, (7S)-5-[3-chloro-4-(trifluoromethyl)phenyl]-7-methyl-3-[5-(3-pyridyl)isoxazol-3-yl]-6,7-dihydropyrazolo[1,5-a]pyrazin-4-one]",110,0.00245,156.64,> 0.63,–,–,–
"Cc1cncc(-c2cc(-c3cnn4c3C(=O)N(c3ccc(C(F)(F)F)c(Cl)c3)C[C@@H]4C)no2)c1 [Co. No. 12, (7S)-5-[3-chloro-4-(trifluoromethyl)phenyl]-7-methyl-3-[5-(5-methyl-3-pyridyl)isoxazol-3-yl]-6,7-dihydropyrazolo[1,5-a]pyrazin-4-one]",108,0.00617,168.58,> 0.63,–,–,–
"C[C@H]1CN(c2ccc(C(F)(F)F)c(Cl)c2)C(=O)c2c(-c3cc(-c4cnccn4)on3)cnn21 [Co. No. 13, (7S)-5-[3-chloro-4-(trifluoromethyl)phenyl]-7-methyl-3-(5-pyrazin-2-ylisoxazol-3-yl)-6,7-dihydropyrazolo[1,5-a]pyrazin-4-one]",106,0.00603,205.91,–,–,–,–
"Cc1cc(N2C[C@H](C)n3ncc(-c4cc(-c5ccccn5)on4)c3C2=O)ccc1C(F)(F)F [Co. No. 14, (7S)-7-methyl-5-[3-methyl-4-(trifluoromethyl)phenyl]-3-[5-(2-pyridyl)isoxazol-3-yl]-6,7-dihydropyrazolo[1,5-a]pyrazin-4-one]",107,0.0148,155.07,–,–,–,–
"Cc1cc(N2C[C@H](C)n3ncc(-c4cc(-c5cccnc5)on4)c3C2=O)ccc1C(F)(F)F [Co. No. 15, (7S)-7-methyl-5-[3-methyl-4-(trifluoromethyl)phenyl]-3-[5-(3-pyridyl)isoxazol-3-yl]-6,7-dihydropyrazolo[1,5-a]pyrazin-4-one]",108,0.0055,120.21,> 0.63,–,–,–
"Cc1cncc(-c2cc(-c3cnn4c3C(=O)N(c3ccc(C(F)(F)F)c(C)c3)C[C@@H]4C)no2)c1 [Co. No. 16, (7S)-7-methyl-3-[5-(5-methyl-3-pyridyl)isoxazol-3-yl]-5-[3-methyl-4-(trifluoromethyl)phenyl]-6,7-dihydropyrazolo[1,5-a]pyrazin-4-one]",110,0.0214,172.9,–,–,–,–
"Cc1cc(N2C[C@H](C)n3ncc(-c4cc(-c5cnccn5)on4)c3C2=O)ccc1C(F)(F)F [Co. No. 17, (7S)-7-methyl-5-[3-methyl-4-(trifluoromethyl)phenyl]-3-(5-pyrazin-2-ylisoxazol-3-yl)-6,7-dihydropyrazolo[1,5-a]pyrazin-4-one]",106,0.0174,181.57,–,–,–,–
"C[C@H]1CN(c2ccc(C(F)(F)F)cc2)C(=O)c2c(-c3cc(-c4cncc(F)c4)on3)cnn21 [Co. No. 19, (7S)-3-[5-(5-fluoro-3-pyridyl)isoxazol-3-yl]-7-methyl-5-[4-(trifluoromethyl)phenyl]-6,7-dihydropyrazolo[1,5-a]pyrazin-4-one]",101,0.0186,176.27,–,–,–,–
"Cc1cc(N2C[C@H](C)n3ncc(-c4cc(-c5cncc(F)c5)on4)c3C2=O)ccc1C(F)(F)F [Co. No. 23, (7S)-3-[5-(5-fluoro-3-pyridyl)isoxazol-3-yl]-7-methyl-5-[3-methyl-4-(trifluoromethyl)phenyl]-6,7-dihydropyrazolo[1,5-a]pyrazin-4-one]",105,0.0209,168.93,–,–,–,–
"C[C@H]1CN(c2ccc(C(F)(F)F)cc2)C(=O)c2c(-c3cc(-c4cccnc4N)on3)cnn21 [Co. No. 24, (7S)-3-[5-(2-amino-3-pyridyl)isoxazol-3-yl]-7-methyl-5-[4-(trifluoromethyl)phenyl]-6,7-dihydropyrazolo[1,5-a]pyrazin-4-one]",106,0.00603,189.85,–,–,–,–
"CNc1cc(-c2cc(-c3cnn4c3C(=O)N(c3ccc(C(F)(F)F)cc3)C[C@@H]4C)no2)ccn1 [Co. No. 25, (7S)-7-methyl-3-[5-[2-(methylamino)-4-pyridyl]isoxazol-3-yl]-5-[4-(trifluoromethyl)phenyl]-6,7-dihydropyrazolo[1,5-a]pyrazin-4-one]",110,0.0251,208.39,–,–,–,–
"CNc1ccc(-c2cc(-c3cnn4c3C(=O)N(c3ccc(C(F)(F)F)cc3)C[C@@H]4C)no2)cn1 [Co. No. 26, (7S)-7-methyl-3-[5-[6-(methylamino)-3-pyridyl]isoxazol-3-yl]-5-[4-(trifluoromethyl)phenyl]-6,7-dihydropyrazolo[1,5-a]pyrazin-4-one]",112,0.00617,173.7,–,–,–,–
"CN1[C@@H]2C[C@@H](OC(=O)[C@H](CO)c3ccccc3)C[C@H]1[C@@H]1O[C@@H]12 [Scopolamine, scopolamine, reference compound]",–,–,–,–,7246,100,95.8
